According to patent US20240368109A1, “ALLOSTERIC MODULATORS OF NICOTINIC ACETYLCHOLINE RECEPTORS” (MERCK SHARP & DOHME LLC, priority 2021, published 2024):

Molecular target: human α7 nAChR (Homo sapiens (Human), UniProt P36544)
Assay: Automated patch-clamp electrophysiology functional assay (Assay A)
Assay type: cell-based
Conditions: IonFlux HT whole-cell population patch, HEK cells expressing human α7/RIC-3, 40 μM acetylcholine
Method: The α7 nAChR positive allosteric modulator (PAM) activity of the present compounds may be tested using assays known in the art. The α7 nAChR PAMs described herein have activities in an automated patch-clamp electrophysiology functional assay as described in the examples. The assay was performed using the IonFlux HT in a whole-cell, population patch configuration. See Golden et al. Assay Drug Dev. Technol. (2011) 9:608-619. The compounds were assessed for their ability to modulate the function of the human α7 nAChR stably expressed in a HEK cell line both in the presence, and in the absence of the natural α7 agonist acetylcholine. By performing a series of such measurements at different concentrations, the effective concentration of the α7 nAChR PAMs (EC50) was determined. See Spencer et al. Assay Drug Dev. Technol. (2012) 10:313-324.
Direct activation of α7 (agonism), and potentiation of acetylcholine-evoked α7 currents was determined as follows:
Automated Patch-Clamp Electrophysiology Functional Assay (Assay A)
Automated patch-clamp electrophysiology was performed using the IonFluxHT (Fluxion Biosciences Inc., San Francisco, CA) in the whole-cell, population patch configuration. Test compounds were assessed for their ability to modulate the function of the α7 nicotinic acetylcholine receptor both in the presence, and in the absence of the natural α7 agonist acetylcholine. A HEK cell line stably expressing both human RIC-3 and human α7 (PrecisION hnAChR α7/RIC-3, Eurofins Pharma, St. Charles, MO) was cultured in 175 cm^2 triple-layer tissue culture flasks to no more than 90% confluency in DMEM/F-12 growth media supplemented with 10% heat-inactivated fetal bovine serum, 1% non-essential amino acids, 0.625 μg/mL Puromycin, and 400 μg/mL Geneticin. Immediately prior to assay, cells were detached by first aspirating growth media, rinsing with Dulbecco's phosphate buffered saline, and then adding 10 mL of Accutase (Innovative Cell Technologies, San Diego, CA) to the flask and then incubating at 37° C. for 5 minutes. Detached cells were then recovered by the addition of 40 mL of CHO-serum-free media supplemented with 25 mM HEPES, and rocked gently in a 50 mL conical tube for 20 minutes prior to patch-clamp assay. After recovery, cells were pelleted by centrifugation at 1,000 RPM for 1 minute in a compact bench top centrifuge; recovery media was aspirated and cells were resuspended in external recording solution (150 mM NaCl, 5 mM KCl, 2 mM CaCl2), 1 mM MgCl2, 10 mM HEPES, 12 mM dextrose) to a density of 5.0×10^6 cells/mL. The cell suspension was added to the cell inlet wells on an IonFlux HT population patch plate which had previously been rinsed and primed with deionized H2O. Test compounds were serially diluted in DMSO and then resuspended to the final test concentration in external recording solution, with, or without 40 μM acetylcholine added to the external recording solution; test compounds were then transferred to the IonFlux HT population patch plate. Internal recording solution (110 mM TrisPO4, 28 mM TrisBase, 0.1 mM CaCl2), 2 mM MgCl2, 11 mM EGTA, 4 mM MgATP) was added to the internal recording solution inlet wells on the IonFlux HT patch plate previously loaded with cells and test compounds, and the plate loaded into the IonFlux HT instrument. A protocol was executed on the IonFlux HT to trap the cells, break into the cells, and establish the whole-cell recording configuration; cells were voltage-clamped at a holding potential of −60 mV for the duration of the experiment, all experiments were conducted at room temperature, and the IonFlux HT injection pressure was 8 psi for solution applications. Upon establishing the whole-cell configuration, external recording solution was perfused into the recording chambers for 120 seconds and then 40 μM acetylcholine was applied for 1 second and immediately washed off with external recording solution for 60 seconds. […]

human α7 nAChR, sequence (P36544 23-502): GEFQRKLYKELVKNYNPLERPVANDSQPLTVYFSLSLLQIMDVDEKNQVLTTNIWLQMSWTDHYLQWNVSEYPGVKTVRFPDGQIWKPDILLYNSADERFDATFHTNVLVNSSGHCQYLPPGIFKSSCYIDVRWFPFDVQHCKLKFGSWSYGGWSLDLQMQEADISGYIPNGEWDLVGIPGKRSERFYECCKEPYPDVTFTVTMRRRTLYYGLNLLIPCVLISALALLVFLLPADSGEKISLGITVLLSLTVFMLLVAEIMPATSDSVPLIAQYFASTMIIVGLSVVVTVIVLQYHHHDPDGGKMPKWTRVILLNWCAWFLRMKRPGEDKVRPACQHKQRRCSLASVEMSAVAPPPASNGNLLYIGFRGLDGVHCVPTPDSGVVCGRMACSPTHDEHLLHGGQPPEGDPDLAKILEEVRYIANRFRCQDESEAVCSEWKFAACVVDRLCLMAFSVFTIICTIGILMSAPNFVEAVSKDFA

Compound | EC50 (electrophysiology EC50 values) | EC50 (potency class)
CCOc1ccc([C@H](COC)NC(=O)C2C3Oc4ccc(-c5c(C)noc5C)cc4C32)cc1 (stereo partly drawn) [Example B10, exo-5-(3,5-dimethyl-1,2-oxazol-4-yl)-N-[(1R)-1-(4-ethoxyphenyl)-2-methoxyethyl]-1a,6b-dihydro-1H-cyclopropa[b][1]benzofuran-1-carboxamide] | 2800 nM | 500 to 5000 nM
CCOc1ccc([C@H](COC)NC(=O)C2C3Oc4ccc(-c5cncnc5)cc4C32)cc1 (stereo partly drawn) [Example B11, exo-N-[(1R)-1-(4-ethoxyphenyl)-2-methoxyethyl]-5-(pyrimidin-5-yl)-1a,6b-dihydro-1H-cyclopropa[b][1]benzofuran-1-carboxamide] | – | 5000 to 50000 nM
CCOc1ccc([C@H](COC)NC(=O)C2C3c4ccccc4N(C(C)=O)C23)cc1 (stereo partly drawn) [Example B12, exo-2-acetyl-N-[(1R)-1-(4-ethoxyphenyl)-2-methoxyethyl]-1,1a,2,6b-tetrahydrocyclopropa[b]indole-1-carboxamide] | 1300 nM | 500 to 5000 nM
CCOc1ccc([C@H](COC)NC(=O)[C@@H]2[C@H]3Oc4ccnc(OC)c4[C@H]32)cc1 [Example B13, exo-N-[(1R)-1-(4-ethoxyphenyl)-2-methoxyethyl]-6-methoxy-1a,6b-dihydro-1H-cyclopropa[4,5]furo[3,2-c]pyridine-1-carboxamide] | 1100 nM | 500 to 5000 nM
CCOc1ccc([C@H](COC)NC(=O)C2C3Oc4ccc(C#N)cc4C32)cc1 (stereo partly drawn) [Example B14, exo-5-cyano-N-[(1R)-1-(4-ethoxyphenyl)-2-methoxyethyl]-1a,6b-dihydro-1H-cyclopropa[b][1]benzofuran-1-carboxamide] | – | 500 to 5000 nM
CCOc1ccc([C@H](COC)NC(=O)C2C3Oc4cc(Br)ccc4C32)cc1 (stereo partly drawn) [Example B15, exo-4-bromo-N-[(1R)-1-(4-ethoxyphenyl)-2-methoxyethyl]-1a,6b-dihydro-1H-cyclopropa[b][1]benzofuran-1-carboxamide] | 480 nM | 100 to 500 nM
CCOc1ccc([C@H](COC)NC(=O)C2C3Oc4ccc(C#N)cc4C32)cc1 (stereo partly drawn) [Example B16, exo-5-cyano-N-[(1R)-1-(4-ethoxyphenyl)-2-methoxyethyl]-1a,6b-dihydro-1H-cyclopropa[b][1]benzofuran-1-carboxamide] | 4100 nM | –
CCOc1ccc([C@H](COC)NC(=O)C2C3Oc4cc(OC)ccc4C32)cc1 (stereo partly drawn) [Example B17, exo-N-[(1R)-1-(4-ethoxyphenyl)-2-methoxyethyl]-4-methoxy-1a,6b-dihydro-1H-cyclopropa[b][1]benzofuran-1-carboxamide] | 630 nM | 500 to 5000 nM
CCOc1ccc([C@H](COC)NC(=O)C2C3Oc4cccc(Br)c4C32)cc1 (stereo partly drawn) [Example B18, exo-6-bromo-N-[(1R)-1-(4-ethoxyphenyl)-2-methoxyethyl]-1a,6b-dihydro-1H-cyclopropa[b][1]benzofuran-1-carboxamide] | 1000 nM | 500 to 5000 nM
CCOc1ccc([C@H](COC)NC(=O)C2C3Oc4cccc(Br)c4C32)cc1 (stereo partly drawn) [Example B19, exo-6-bromo-N-[(1R)-1-(4-ethoxyphenyl)-2-methoxyethyl]-1a,6b-dihydro-1H-cyclopropa[b][1]benzofuran-1-carboxamide] | 72 nM | ≤ 100 nM
O=C(N[C@H]1COCc2ccc(F)cc21)C1C2Oc3ccc(F)cc3C21 (stereo partly drawn) [Example C1, exo-5-fluoro-N-[(4R)-6-fluoro-3,4-dihydro-1H-2-benzopyran-4-yl]-1a,6b-dihydro-1H-cyclopropa[b][1]benzofuran-1-carboxamide] | 4800 nM | 500 to 5000 nM
O=C(N[C@@H](CO)C1CCCCC1)C1C2Sc3ccccc3C21 (stereo partly drawn) [Example C2, exo-N-[(1R)-1-cyclohexyl-2-hydroxyethyl]-1a,6b-dihydro-1H-cyclopropa[b][1]benzothiophene-1-carboxamide] | 2300 nM | 500 to 5000 nM
CCOc1ccc(C2(NC(=O)C3C4Oc5ccc(F)cc5C43)CCC2)cn1 (stereo not drawn) [Example C3, exo-N-[1-(6-ethoxypyridin-3-yl)cyclobutyl]-5-fluoro-1a,6b-dihydro-1H-cyclopropa[b][1]benzofuran-1-carboxamide] | 5600 nM | 5000 to 50000 nM
COc1cc2c(cc1OC)[C@@H](NC(=O)C1C3Oc4ccc(F)cc4C31)COC2 (stereo partly drawn) [Example C4, exo-N-[(4R)-6,7-dimethoxy-3,4-dihydro-1H-2-benzopyran-4-yl]-5-fluoro-1a,6b-dihydro-11H-cyclopropa[b][1]benzofuran-1-carboxamide] | – | 5000 to 50000 nM
CCOc1ccc([C@@H](NC(=O)C2C3Oc4ccc(F)cc4C32)C(F)F)cn1 (stereo partly drawn) [Example C5, exo-N-[(1R)-1-(6-ethoxypyridin-3-yl)-2,2-difluoroethyl]-5-fluoro-1a,6b-dihydro-1H-cyclopropa[b][1]benzofuran-1-carboxamide] | 1400 nM | 500 to 5000 nM
O=C(N[C@H]1CCOc2cc(F)ccc21)C1C2Oc3ccc(F)cc3C21 (stereo partly drawn) [Example C6, exo-5-fluoro-N-[(4S)-7-fluoro-3,4-dihydro-2H-1-benzopyran-4-yl]-1a,6b-dihydro-1H-cyclopropa[b][1]benzofuran-1-carboxamide] | 860 nM | 500 to 5000 nM
O=C(N[C@H]1CCOc2cc(F)c(F)cc21)C1C2Oc3ccc(F)cc3C21 (stereo partly drawn) [Example C7, exo-N-[(4S)-6,7-difluoro-3,4-dihydro-2H-1-benzopyran-4-yl]-5-fluoro-1a,6b-dihydro-1H-cyclopropa[b][1]benzofuran-1-carboxamide] | 1100 nM | 500 to 5000 nM
COc1ccc2c(c1)OCC2NC(=O)C1C2Oc3ccc(F)cc3C21 (stereo not drawn) [Example C8, exo-5-fluoro-N-(6-methoxy-2,3-dihydro-1-benzofuran-3-yl)-1a,6b-dihydro-1H-cyclopropa[b][1]benzofuran-1-carboxamide] | 810 nM | 500 to 5000 nM
CCOc1ccc([C@@H](NC(=O)C2C3Oc4ccc(F)cc4C32)C(F)F)cn1 (stereo partly drawn) [Example C9, exo-N-[(1R)-1-(6-ethoxypyridin-3-yl)-2,2-difluoroethyl]-5-fluoro-1a,6b-dihydro-1H-cyclopropa[b][1]benzofuran-1-carboxamide] | 1100 nM | 500 to 5000 nM
O=C(NCCc1ccccc1)C1C2Oc3ccc(F)cc3C21 (stereo not drawn) [Example C11, exo-5-fluoro-N-(2-phenylethyl)-1a,6b-dihydro-1H-cyclopropa[b][1]benzofuran-1-carboxamide] | 2200 nM | 500 to 5000 nM
CC(NC(=O)C1C2Oc3ccc(F)cc3C21)c1cccs1 (stereo not drawn) [Example C12, exo-5-fluoro-N-[1-(thiophen-2-yl)ethyl]-1a,6b-dihydro-1H-cyclopropa[b][1]benzofuran-1-carboxamide] | 1200 nM | 500 to 5000 nM
O=C(NCc1cc(Cl)ccc1F)C1C2Oc3ccc(F)cc3C21 (stereo not drawn) [Example C14, exo-N-[(5-chloro-2-fluorophenyl)methyl]-5-fluoro-1a,6b-dihydro-1H-cyclopropa[b][1]benzofuran-1-carboxamide] | 810 nM | 500 to 5000 nM
O=C(NCc1ccc(Cl)c(F)c1)C1C2Oc3ccc(F)cc3C21 (stereo not drawn) [Example C15, exo-N-[(4-chloro-3-fluorophenyl)methyl]-5-fluoro-1a,6b-dihydro-1H-cyclopropa[b][1]benzofuran-1-carboxamide] | 5600 nM | 5000 to 50000 nM
CCC(NC(=O)C1C2Oc3ccc(F)cc3C21)c1ccccn1 (stereo not drawn) [Example C16, 2-{1-[(exo-5-fluoro-1a,6b-dihydro-1H-cyclopropa[b][1]benzofuran-1-carbonyl)amino]propyl}pyridine] | – | 500 to 5000 nM
